Assay results as given in PMC10179272, “SARS-CoV-2 Binding and Neutralization Properties of Peptides Derived from N-Terminus of Human ACE2” (International Journal of Molecular Sciences, 2023).
Where a SMILES comes first, the peptide text is derived from it. Bridges are numbered along the chain shown (N, C = ends). [ ]: non-standard residue; d: D form. S5 = C=CCCC[C@](C)(N)C(=O)O

Columns and labels:
[1] = system: full-length SARS-CoV-2 S protein (Wuhan variant); assay: Competition of P1st with FAM-labeled peptides for S protein binding (fluorescent immunoassay); settings: P1st at 25 μM; P1-FAM 3.25 to 25 μM; fluorescence intensity; result in words
[2] = system: PVP with Wuhan variant S-protein
[3] = system: BA.1-like (Omicron) PVP
[4] = system: live SARS-CoV-2 virus (variant B.1.1)
[5] = system: full-length S protein of SARS-CoV-2 (Wuhan variant); assay type: binding; settings: S protein 1 μg/mL coated; peptide incubated 2 h at RT; fluorescence 483 nm excitation/530 nm emission; result in words
[6] = system: full-length S protein of SARS-CoV-2 (Wuhan variant); assay: Immunosorbent assay of P2 binding to immobilized S protein, detected with anti-P1 antibodies; settings: P2 incubated 2 h at 37 °C; anti-P1 antibody 1 μg/mL, anti-rabbit IgG-HRP, TMB, A450-620; result in words

CC[C@H](C)[C@H](NC(=O)[C@@H](NC(=O)[C@H](CO)NC(C)=O)[C@@H](C)O)C(=O)N[C@@H](CCC(=O)O)C(=O)N[C@@H](CCC(=O)O)C(=O)N[C@@H](CCC(N)=O)C(=O)N[C@@H](C)C(=O)N[C@@H](CCCCN)C(=O)N[C@H](C(=O)N[C@@]1(C)CCCC=CCCC[C@@](C)(C(=O)N[C@@H](CC(N)=O)C(=O)N[C@@H](Cc2c[nH]cn2)C(=O)N[C@@H](CCC(=O)O)C(=O)N[C@@H](C)C(=O)N[C@@H](CCC(=O)O)C(=O)N[C@@H](CC(=O)O)C(=O)N[C@@H](CC(C)C)C(=O)N[C@@H](Cc2ccccc2)C(=O)N[C@@H](Cc2ccc(O)cc2)C(=O)N[C@@H](CCC(N)=O)C(=O)N[C@@]2(C)CCCC=CCCC[C@@](C)(C(=O)N[C@@H](Cc3c[nH]c4ccccc34)C(=O)N[C@@H](CC(N)=O)C(=O)N[C@@H](Cc3ccc(O)cc3)C(N)=O)NC(=O)[C@H](C)NC(=O)[C@H](CC(C)C)NC(=O)[C@H](CO)NC2=O)NC(=O)[C@H](CCCCN)NC(=O)[C@H](CC(=O)O)NC(=O)[C@H](CC(C)C)NC1=O)[C@@H](C)O [P1st] (Ac-STIEEQAKT[S5]LDK[S5]NHEAEDLFYQ[S5]SLA[S5]WNY-NH2; staple 10-14, 25-29)
Competition with other peptides (P1-FAM, SAP) for binding to S protein [1]: able to efficiently compete
IC50 ([2]; 48 h): 25.4 µM
IC50 ([3]; 48 h): 18.3 µM
IC50 ([4]; live virus (variant B.1.1, 4 h)): 7.04 µM

EDLFYQ [SAP6, short ACE2 peptide, 6 aa, described previously [23]]
Binding of FAM-labeled peptide to immobilized full-length S protein [5]: reasonable binding

EDLFYQSSL [SAP2, short ACE2 peptide, 9 aa, described previously [23]]
Binding of FAM-labeled peptide to immobilized full-length S protein [5]: reasonable binding

GKGDFRIL [SAP4, reference compound]
Binding of FAM-labeled peptide to immobilized full-length S protein [5]: failed to bind
Inhibitory activity on PVP (Wuhan S protein) entry at high concentration ([2]; 200 μM peptide, HEK/ACE2 cells, judged non-specific, result in words): Marked inhibitory activity
Inhibitory activity on live SARS-CoV-2 infection of Vero cells at high concentration ([4]; 300 μM peptide, […], judged non-specific, result in words): Inhibitory activity

MSTIEEQAKTFLDKFNHEAEDLFYQSSLASWNYNTNITEENVQNMNNAGDKWSAFLKEQSTLAQMYPLQEIQNLTVKLQLQALQ [P2]
P2 binding to immobilized full-length S protein [6]: demonstrated their binding ability
Inhibition of PVP (Wuhan S protein) entry into ACE2-overexpressing cells ([2]; peptide 0 to 56 μM (Figure 3), […], flow cytometry, result in words): could not inhibit entry
Inhibition of PVP (BA.1-like S protein) entry into ACE2-overexpressing cells ([3]; […], flow cytometry, result in words): failed to inhibit PVP entry

STIEEQAKTFLDAFNHAAAALFAQSSLASWNY [P1m, control P1 with alanine substitutions of key amino acids]
Binding of FAM-labeled peptide to immobilized full-length S protein [5]: failed to bind

TFLDKFNHEAEDLFYQ [SAP1, short ACE2 peptide, 16 aa, described previously [23]]
Binding of FAM-labeled peptide to immobilized full-length S protein [5]: reasonable binding
